What was measured:
[1] = Mouse weights over the two-week treatment period (tolerability); type: in vivo; conditions: 5-10 mg/kg intravenously, three doses over two weeks
Description: For in vivo treatments, a 10 mg/mL stock solution of 17S-FD-895 solubilized in DMSO was used. After randomization, AML-engrafted mice were dosed intravenously with 17S-FD-895 (5-10 mg/kg) or vehicle (for AML-08, vehicle control=15% DMSO in PBS; for AML-37, vehicle control=20% DMSO in PBS) three times over a two-week period, with the first dose given on day 1, the second on day 7, and the third on day 14. For preparation of RNA from human LSC-enriched populations, single cell suspensions from spleen and bone marrow were CD34 double-selected (over two LS selection columns, Miltenyi) and 1-2×10^5 cells were collected in lysis buffer or pooled according to treatment group for serial transplantation assays.
All animal studies were performed in accordance with UCSD and NIH-equivalent ethical guidelines and were approved by the Institutional Animal Care and Use Committee. Three AML PRIMAGRAFT™ models were established from AML LSC-enriched cell fractions (1-2×10^5 CD34^+ cells) transplanted intrahepatically into neonatal Rag2^−/−γc^−/− as previously described (Abrahamsson et al., 2009), or intravenously into sublethally irradiated adult (6-8 weeks old) NOD/SCID-IL2RG mice (NSGS, Jackson Laboratory). […] After treatment, hematopoietic tissues were analyzed as described following. […]

[2] = tested on: HEK293 cells; experiment: In vitro splicing of endogenous transcripts (qRT-PCR, RT-PCR) in HEK293; type: cell-based
Description: (§1) For qRT-PCR analysis of relative total mRNA expression levels or splice isoform-specific expression analyses, cDNA was synthesized using 50 ng-1 pg of template RNA in 20 μL reaction volumes using the First-Strand SUPERSCRIPT™ III Reverse Transcriptase Supermix (Life Technologies) followed by incubation with RNase H according to the manufacturer's protocol and as described previously. All cDNA products were stored at −20° C. Splice isoform-specific primers for PTK2B-202 were designed to bind to unique exon junctions for this transcript, which lacks exon 24. […] For standard qRT-PCR, human HPRT mRNA transcript levels were used to normalize Ct values obtained for each gene, and relative expression levels were calculated using the 2^−ddCt method. […]
as §1, with “[…]” for “pg”, “[…]” for “μL”, “previously (Abrahamsson et al., 2009; Crews et al., 2015).” for “previously. All cDNA products were stored at −20° C. Splice isoform-specific primers for PTK2B-202 were designed to bind to unique exon junctions for this transcript, which lacks exon 24.”, “2-ddCt” for “2^−ddCt”

## CC[C@H](OC)[C@@H](C)[C@H]1O[C@@H]1[C@@H](O)[C@H](C)/C=C/C=C(\C)[C@H]1OC(=O)C[C@H](O)CC[C@@](C)(O)[C@@H](OC(C)=O)/C=C/[C@@H]1C (stereo in doubt) [Formula 17S-FD-895, 17S-FD-895]
[1]
  tolerability / weight changes: well tolerated, with no significant weight changes detected
[2]; HEK293, 0.01-10 μM, 4 hrs
  MCL1-S expression (qRT-PCR): low doses of 17S-FD-895 increased MCL1-S expression, this effect was reversed at high doses
[2]; HEK293 cells, compared with MOLM-13
  DNAJB1 intron 2 levels: to a lesser extent

From patent US10675267B2, “Methods for detection and eradication of myeloid leukemia stem cells” (priority 2015, dated 2020)
